Test results from US9605026B2, “Hydrogen-bond surrogate peptides and peptidomimetics for p53 reactivation” (New York University, priority 2013, dated 2017).

Columns and labels:
p53 = assay: Western blot of total and acetylated[K382] p53 in UMSCC74A cells; format: cell-based, human; details: UMSCC74A (HPV-negative, p53 wildtype), 10 μM, 24 hours
From the text: (§1) FIG. 5A is an schematic illustration showing that CH1 has two distinct target sites. HIF1-α/p300 structures were used as guides to design helix mimetics that target site A and site B on the CH1 domain of p300. […] CH1iA (SEQ ID NO: 7) and CH1iB (SEQ ID NO: 8) were designed to mimic two helices from the C-terminal domain of HIF-1α. The peptides were locked into the helical conformation by the hydrogen bond surrogate method. FIG. 5C is a graph of p53 activity. UMSCC47 (left) and UMSCC74A (right) cells were co-transfected with a p53 Firefly luciferase reporter plasmid and a control Renilla luciferase plasmid. After 24 hours, cells were treated with control (vehicle), CH1iA (10 μM), or CH1iB (10 μM) for 24 hours. Firefly luciferase activity was normalized to Renilla luciferase activity to control for transfection efficiency. Data is normalized to control and presented as mean±SEM. *P<0.05, n=3. FIG. 5D is a western blot showing total and acetylated p53 levels. UMSCC47 (left) and UMSCC74A (right) cells were treated with control (vehicle), CH1iA (10 μM), or CH1iB (10 μM) for 24 hours. Cell lysates were immunoblotted with anti-p53 or anti-acetylated[K382]-p53 antibody. […] UMSCC47 (top panel) and UMSCC74A (bottom panel) cells were treated with control (vehicle), CH1iA (10 μM), or CH1iB (10 μM) for 24 hours. mRNA expression was determined using qPCR with validated TaqMan assays. […]

[1] = tested on: p300, p53, and p53-regulated genes; assay: qPCR expression of p300, p53, p21, miR-34a, miR-200c in UMSCC74A cells; format: cell-based, human; details: 10 μM, 24 hours
From the text: as §1, with “hours.” for “hours. Firefly luciferase activity was normalized to Renilla luciferase activity to control for transfection efficiency. Data is normalized to control and presented as mean±SEM. *P<0.05, n=3. FIG. 5D is a western blot showing total and acetylated p53 levels. UMSCC47 (left) and UMSCC74A (right) cells were treated with control (vehicle), CH1iA (10 μM), or CH1iB (10 μM) for 24 hours. Cell lysates were immunoblotted with anti-p53 or anti-acetylated[K382]-p53 antibody.”
Cells were extracted for total RNA using the TRIzol® reagent (Invitrogen) or TaqMan PreAmp Cells-to-CT kit (Applied Biosystems). Expression of p300, p53, p21, miR-34a and miR-200c were determined using the Applied Biosystems 7900HT Fast Real-Time PCR System with validated TaqMan gene expression assays (Applied Biosystems). p53, p300, and p21 expression were normalized to GADPH and miR-34a and miR-200c expression were normalized to RNU44 using the ΔΔCt method.

UMSCC74A cells = assay: Cell proliferation (MTT) in UMSCC74A cells; format: cell-based, human; details: for cell proliferation, single-agent: UMSCC74A (HPV-negative), 10 μM; for effect on efficacy of cis-platinum on proliferation: UMSCC74A, 10 μM with cis-platinum 10 μM
From the text: (§2) FIG. 5A is an schematic illustration showing that CH1 has two distinct target sites. HIF1-α/p300 structures were used as guides to design helix mimetics that target site A and site B on the CH1 domain of p300. […] CH1iA (SEQ ID NO: 7) and CH1iB (SEQ ID NO: 8) were designed to mimic two helices from the C-terminal domain of HIF-1α. The peptides were locked into the helical conformation by the hydrogen bond surrogate method. FIG. 5C is a graph of p53 activity. UMSCC47 (left) and UMSCC74A (right) cells were co-transfected with a p53 Firefly luciferase reporter plasmid and a control Renilla luciferase plasmid. After 24 hours, cells were treated with control (vehicle), CH1iA (10 μM), or CH1iB (10 μM) for 24 hours. Firefly luciferase activity was normalized to Renilla luciferase activity to control for transfection efficiency. Data is normalized to control and presented as mean±SEM. *P<0.05, n=3. FIG. 5D is a western blot showing total and acetylated p53 levels. UMSCC47 (left) and UMSCC74A (right) cells were treated with control (vehicle), CH1iA (10 μM), or CH1iB (10 μM) for 24 hours. Cell lysates were immunoblotted with anti-p53 or anti-acetylated[K382]-p53 antibody. FIG. 5E is a pair of graphs of p300, p53, p21, miR-34a, and miR-200c expression. UMSCC47 (top panel) and UMSCC74A (bottom panel) cells were treated with control (vehicle), CH1iA (10 μM), or CH1iB (10 μM) for 24 hours. mRNA expression was determined using qPCR with validated TaqMan assays. Data is normalized to control cells and presented as mean±SEM. *P<0.01, control vs. CH1iB, n=3. FIG. 5F is a western blot showing HPV16 E6-p300 association. UMSCC47 cells were treated with control (vehicle), CH1iA (10 μM), or CH1iB (10 μM) for 24 hours. Cell lysates were extracted, immunoprecipitated with anti-p300 antibody, and immunoblotted with anti-E6 antibody. Cell lysates were immunoblotted with anti-E6 or anti-p300 antibody for input control. FIG. 5G is a set of graphs of cell proliferation. UMSCC47 (top left panel), UMSCC74A (top right panel), and IMR90 (human normal fibroblasts) (bottom panel) cells were treated with control (vehicle), CH1iA (10 μM), CH1iB (10 μM), cis-platinum (10 μM), CH1iA (10 μM) and cis-platinum (10 μM), or CH1iB (10 μM) and cis-platinum (10 μM) for 24, 48, or 72 hours. […]
(§3) Cell proliferation was assessed using the MTT reagent (Roche Molecular Biochemicals, Nutley, N.J.) to detect metabolic active cells. Absorbance was measured at 570 nm in the Spectra Max 190 ELISA reader (Molecular Devices, Sunnyvale, Calif.) after overnight incubation. […] Apoptotic cells were analyzed using BD FACS Calibur (BD Biosciences Corporation, Franklin Lakes, N.J.) at The Ohio State University Comprehensive Cancer Center Analytical Cytometry Core.

[2] = tested on: human normal IMR90 fibroblasts; assay: Cell proliferation (MTT) in IMR90 fibroblasts; format: cell-based; details: for effect on efficacy of cis-platinum on proliferation: IMR90, 10 μM with cis-platinum 10 μM; for cell proliferation, single-agent: IMR90 human normal fibroblasts, 10 μM
From the text: as §2, §3

| Substance | p53 levels (p53) | Expression of p300, p53, and p53-regulated genes [1] | cell proliferation, single-agent (UMSCC74A cells) | effect on efficacy of cis-platinum on proliferation (UMSCC74A cells) | effect on efficacy of cis-platinum on proliferation [2] | cell proliferation, single-agent [2] |
| --- | --- | --- | --- | --- | --- | --- |
| XELA*RALDQ-NH2 (ELXRALDQ; HBS: 4-pentenoic acid, N-allylalanine; C-terminal amide; CH1iB) [X 4-pentenoic acid, A* N-allylalanine] | did not modulate | unchanged | no effect | did not augment | did not augment | no effect |
| XTAA*DCEYNAR (TAXDCEYNAR; HBS: 4-pentenoic acid, N-allylalanine; CH1iA) [X 4-pentenoic acid, A* N-allylalanine, reference compound] | did not modulate | unchanged | no effect | did not augment | did not augment | no effect |
